Laboratory results: ChEMBL document CHEMBL1909533, “Micelles catalyzed chemoselective synthesis 'in water' and biological evaluation of oxygen containing hetero-1,4-naphthoquinones as potential antifungal agents” (2011)
Converted amounts (≈) assume the structure as drawn.

What was measured:
Assay type in all cases: functional
Candida albicans [1] = test: Antifungal activity against Candida albicans by broth microdilution method
Aspergillus fumigatus = test: Antifungal activity against Aspergillus fumigatus by broth microdilution method
Cryptococcus neoformans [2] = test: Antifungal activity against Cryptococcus neoformans by broth microdilution method
Pseudomonas aeruginosa = test: Antibacterial activity against Pseudomonas aeruginosa by micro-broth dilution method
Klebsiella pneumoniae = test: Antibacterial activity against Klebsiella pneumoniae ATCC 27736 by micro-broth dilution method
Staphylococcus aureus = test: Antibacterial activity against Staphylococcus aureus ATCC 25923 by micro-broth dilution method
Candida parapsilosis [3] = test: Antifungal activity against Candida parapsilosis by broth microdilution method; details: Lodderomyces parapsilosis
Escherichia coli = test: Antibacterial activity against Escherichia coli by micro-broth dilution method
Candida albicans [4] = test: Ratio of miconazole MIC50 to compound MIC50 for Candida albicans
Sporothrix schenckii = test: Antifungal activity against Sporothrix schenckii by broth microdilution method
[5] = system: Trichophyton mentagrophytes; test: Antifungal activity against Trichophyton mentagrophytes by broth microdilution method
Candida parapsilosis [6] = test: Ratio of 2-chloro-3-(4-hydroxyphenylamino)naphthalene-1,4-dione MIC50 to compound MIC50 for Candida parapsilosis
Candida parapsilosis [7] = test: Ratio of 2-Chloro-3-phenylsulfanyl-[1,4]naphthoquinone MIC50 to compound MIC50 for Candida parapsilosis
[8] = system: Trichophyton mentagrophytes; test: Ratio of amphotericin-B MIC50 to compound MIC50 for Trichophyton mentagrophytes
[9] = system: Trichophyton mentagrophytes; test: Ratio of fluconazole MIC50 to compound MIC50 for Trichophyton mentagrophytes
Cryptococcus neoformans [10] = test: Ratio of miconazole MIC50 to compound MIC50 for Cryptococcus neoformans

Compound	MIC (Candida albicans [1])	MIC (Aspergillus fumigatus)	MIC (Cryptococcus neoformans [2])	MIC (Pseudomonas aeruginosa)	MIC (Klebsiella pneumoniae)	MIC (Staphylococcus aureus)	MIC (Candida parapsilosis [3])	MIC (Escherichia coli)	Ratio (Candida albicans [4])	MIC (Sporothrix schenckii)	MIC [5]	Ratio (Candida parapsilosis [6])	Ratio (Candida parapsilosis [7])	Ratio [8]	Ratio [9]	Ratio (Cryptococcus neoformans [10])
Cc1cc2c(cc1OC1=C(O)C(=O)c3ccccc3C1=O)C(=O)c1ccccc1C2=O [NEWBOULDIAQUINONE A]	4.88 mg/L (≈ 11.9 µM)	–	–	–	–	–	–	–	–	–	–	–	–	–	–	–
O=C1C(Cl)=C(Oc2ccc(Cl)cc2)C(=O)c2ccccc21	12.5 mg/L (≈ 39.2 µM)	> 50 mg/L	12.5 mg/L (≈ 39.2 µM)	> 50 mg/L	> 50 mg/L	50 mg/L (≈ 157 µM)	6.25 mg/L (≈ 19.6 µM)	> 50 mg/L	2	1.56 mg/L (≈ 4.89 µM)	1.56 mg/L (≈ 4.89 µM)	–	–	–	–	–
Cc1cc(C)cc(OC2=C(Cl)C(=O)c3ccccc3C2=O)c1	12.5 mg/L (≈ 40 µM)	50 mg/L (≈ 160 µM)	12.5 mg/L (≈ 40 µM)	> 50 mg/L	> 50 mg/L	25 mg/L (≈ 79.9 µM)	3.12 mg/L (≈ 9.98 µM)	50 mg/L (≈ 160 µM)	–	1.56 mg/L (≈ 4.99 µM)	1.56 mg/L (≈ 4.99 µM)	2	2	–	–	–
O=C1C(Cl)=C(Oc2ccc3ccccc3c2)C(=O)c2ccccc21	> 50 mg/L	50 mg/L (≈ 149 µM)	> 50 mg/L	> 50 mg/L	> 50 mg/L	> 50 mg/L	> 50 mg/L	> 50 mg/L	–	> 50 mg/L	50 mg/L (≈ 149 µM)	–	–	–	–	–
Cc1ccc(OC2=C(Cl)C(=O)c3ccccc3C2=O)cc1	6.25 mg/L (≈ 20.9 µM)	25 mg/L (≈ 83.7 µM)	12.5 mg/L (≈ 41.8 µM)	> 50 mg/L	> 50 mg/L	12.5 mg/L (≈ 41.8 µM)	3.12 mg/L (≈ 10.4 µM)	25 mg/L (≈ 83.7 µM)	4	0.78 mg/L (≈ 2.61 µM)	1.56 mg/L (≈ 5.22 µM)	2	2	–	–	–
NC[C@H]1O[C@H](O[C@H]2[C@H](O)[C@@H](O[C@H]3O[C@H](CO)[C@@H](O)[C@H](N)[C@H]3O)[C@H](N)C[C@@H]2N)[C@H](N)C[C@@H]1O [TOBRAMYCIN]	–	–	–	1 mg/L (≈ 2.14 µM)	4 mg/L (≈ 8.56 µM)	0.25 mg/L (≈ 0.535 µM)	–	0.5 mg/L (≈ 1.07 µM)	–	–	–	–	–	–	–	–
COc1ccc(OC2=C(Cl)C(=O)c3ccccc3C2=O)cc1	12.5 mg/L (≈ 39.7 µM)	50 mg/L (≈ 159 µM)	12.5 mg/L (≈ 39.7 µM)	> 50 mg/L	> 50 mg/L	50 mg/L (≈ 159 µM)	6.25 mg/L (≈ 19.9 µM)	> 50 mg/L	2	1.56 mg/L (≈ 4.96 µM)	1.56 mg/L (≈ 4.96 µM)	–	–	–	–	–
GENTAMICIN	–	–	–	0.39 mg/L	0.78 mg/L	0.78 mg/L	–	0.18 mg/L	–	–	–	–	–	–	–	–
O=C1C(Cl)=C(Oc2cccc3ccccc23)C(=O)c2ccccc21	12.5 mg/L (≈ 37.3 µM)	> 50 mg/L	25 mg/L (≈ 74.7 µM)	> 50 mg/L	> 50 mg/L	25 mg/L (≈ 74.7 µM)	12.5 mg/L (≈ 37.3 µM)	50 mg/L (≈ 149 µM)	2	1.56 mg/L (≈ 4.66 µM)	1.56 mg/L (≈ 4.66 µM)	–	–	–	–	–
NC[C@H]1O[C@H](O[C@H]2[C@H](O)[C@@H](O[C@H]3O[C@H](CO)[C@@H](O)[C@H](N)[C@H]3O)[C@H](N)C[C@@H]2N)[C@H](O)[C@@H](O)[C@@H]1O [KANAMYCIN]	–	–	–	32 mg/L (≈ 66 µM)	> 128 mg/L	2 mg/L (≈ 4.13 µM)	–	16 mg/L (≈ 33 µM)	–	–	–	–	–	–	–	–
O=C1C(Cl)=C(Oc2ccccc2)C(=O)c2ccccc21	12.5 mg/L (≈ 43.9 µM)	50 mg/L (≈ 176 µM)	6.25 mg/L (≈ 22 µM)	> 50 mg/L	> 50 mg/L	50 mg/L (≈ 176 µM)	12.5 mg/L (≈ 43.9 µM)	> 50 mg/L	–	3.12 mg/L (≈ 11 µM)	0.78 mg/L (≈ 2.74 µM)	–	–	2	2	2
Cc1ccc(OC2=C(Sc3ccc(C)cc3)C(=O)c3ccccc3C2=O)cc1	25 mg/L (≈ 64.7 µM)	> 50 mg/L	12.5 mg/L (≈ 32.3 µM)	> 50 mg/L	> 50 mg/L	12.5 mg/L (≈ 32.3 µM)	25 mg/L (≈ 64.7 µM)	> 50 mg/L	–	3.12 mg/L (≈ 8.07 µM)	1.56 mg/L (≈ 4.04 µM)	–	–	–	–	–
Cc1ccc(OC2=C(Nc3ccccc3)C(=O)c3ccccc3C2=O)cc1	12.5 mg/L (≈ 35.2 µM)	50 mg/L (≈ 141 µM)	12.5 mg/L (≈ 35.2 µM)	> 50 mg/L	> 50 mg/L	50 mg/L (≈ 141 µM)	12.5 mg/L (≈ 35.2 µM)	50 mg/L (≈ 141 µM)	–	1.56 mg/L (≈ 4.39 µM)	0.78 mg/L (≈ 2.19 µM)	–	–	2	2	–
NYSTATIN	7.8 mg/L	–	3.5 mg/L	–	–	–	–	–	–	13.2 mg/L	–	–	–	–	–	–
OC(Cn1cncn1)(Cn1cncn1)c1ccc(F)cc1F [FLUCONAZOLE]	1 mg/L (≈ 3.27 µM)	2 mg/L (≈ 6.53 µM)	0.5 mg/L (≈ 1.63 µM)	–	–	–	1 mg/L (≈ 3.27 µM)	–	–	2 mg/L (≈ 6.53 µM)	1.56 mg/L (≈ 5.09 µM)	–	–	–	–	–
O=C1C(Cl)=C(Oc2ccccc2OC2=C(Cl)C(=O)c3ccccc3C2=O)C(=O)c2ccccc21	50 mg/L (≈ 102 µM)	> 50 mg/L	> 50 mg/L	> 50 mg/L	> 50 mg/L	> 50 mg/L	50 mg/L (≈ 102 µM)	> 50 mg/L	–	25 mg/L (≈ 50.9 µM)	50 mg/L (≈ 102 µM)	–	–	–	–	–
C[C@@H]1[C@H](O)[C@@H](C)/C=C/C=C/C=C/C=C/C=C/C=C/C=C/[C@H](O[C@@H]2O[C@H](C)[C@@H](O)[C@H](N)[C@@H]2O)C[C@@H]2O[C@](O)(C[C@@H](O)C[C@@H](O)[C@H](O)CC[C@@H](O)C[C@@H](O)CC(=O)O[C@H]1C)C[C@H](O)[C@H]2C(=O)O [AMPHOTERICIN B]	0.39 mg/L (≈ 0.422 µM)	–	0.78 mg/L (≈ 0.844 µM)	–	–	–	–	–	–	–	1.56 mg/L (≈ 1.69 µM)	–	–	–	–	–
O=C1C(Cl)=C(Nc2ccc(O)cc2)C(=O)c2ccccc21	1.56 mg/L (≈ 5.2 µM)	3.12 mg/L (≈ 10.4 µM)	0.78 mg/L (≈ 2.6 µM)	–	–	–	6.25 mg/L (≈ 20.9 µM)	–	–	1.56 mg/L (≈ 5.2 µM)	1.56 mg/L (≈ 5.2 µM)	–	–	–	–	–
NCC[C@H](O)C(=O)N[C@@H]1C[C@H](N)[C@@H](O[C@H]2O[C@H](CN)[C@@H](O)[C@H](O)[C@H]2O)[C@H](O)[C@H]1O[C@H]1O[C@H](CO)[C@@H](O)[C@H](N)[C@H]1O [AMIKACIN]	–	–	–	1 mg/L (≈ 1.71 µM)	2 mg/L (≈ 3.42 µM)	16 mg/L (≈ 27.3 µM)	–	1 mg/L (≈ 1.71 µM)	–	–	–	–	–	–	–	–
Cc1ccc(OC2=C(Sc3ccccc3)C(=O)c3ccccc3C2=O)cc1	25 mg/L (≈ 67.1 µM)	> 50 mg/L	12.5 mg/L (≈ 33.6 µM)	> 50 mg/L	> 50 mg/L	25 mg/L (≈ 67.1 µM)	12.5 mg/L (≈ 33.6 µM)	> 50 mg/L	–	1.56 mg/L (≈ 4.19 µM)	0.78 mg/L (≈ 2.09 µM)	–	–	2	2	–
O=C1C=C(Sc2ccccc2)C(=O)c2ccccc21	12.5 mg/L (≈ 46.9 µM)	25 mg/L (≈ 93.9 µM)	1.56 mg/L (≈ 5.86 µM)	–	–	–	–	–	–	–	0.78 mg/L (≈ 2.93 µM)	–	–	–	–	–
O=c1c2oc3ccccc3oc=2c(=O)c2ccccc12	6.25 mg/L (≈ 23.7 µM)	25 mg/L (≈ 94.6 µM)	12.5 mg/L (≈ 47.3 µM)	> 50 mg/L	> 50 mg/L	25 mg/L (≈ 94.6 µM)	3.12 mg/L (≈ 11.8 µM)	50 mg/L (≈ 189 µM)	4	0.78 mg/L (≈ 2.95 µM)	1.56 mg/L (≈ 5.9 µM)	2	2	–	–	–
Clc1ccc(COC(Cn2ccnc2)c2ccc(Cl)cc2Cl)c(Cl)c1 (stereo unspecified) [MICONAZOLE]	25 mg/L (≈ 60.1 µM)	12.5 mg/L (≈ 30 µM)	12.5 mg/L (≈ 30 µM)	–	–	–	–	–	–	–	< 0.78 mg/L	–	–	–	–	–
